From ChEMBL document CHEMBL5230103, “Hydroxamic acid hybrids as the potential anticancer agents: An Overview” (Eur J Med Chem, 2020) come the findings set out here.

In series [1] the test system is ASPC1. Nature of the series: Cytotoxicity against human ASPC1 cells assessed as inhibition of cell growth by SRB assay. Type of series: functional, cell-based. Background: Sulforhodamine B stains cellular protein and so reports cell mass.
Series [2] relates to ASPC1. Nature of the series: Potency index, ratio of vorinostat IC50 to test compound IC50 for cytotoxicity against human ASPC1 cells assessed as inhibition of cell growth by SRB assay. Type of series: functional.
Series [3] deals with SW-620. Nature of the series: Cytotoxicity against human SW620 cells assessed as inhibition of cell growth by SRB assay. Type of series: functional, cell-based.
The test system of series [4] is SW-620. Nature of the series: Potency index, ratio of vorinostat IC50 to test compound IC50 for cytotoxicity against human SW620 cells assessed as inhibition of cell growth by SRB assay. Type of series: functional.
In series [5] the test system is PC-3. Put plainly: Cytotoxicity against human PC-3 cells assessed as inhibition of cell growth by SRB assay. Type of series: functional, cell-based.
Series [6] has as its system PC-3. Nature of the series: Potency index, ratio of vorinostat IC50 to test compound IC50 for cytotoxicity against human PC-3 cells assessed as inhibition of cell growth by SRB assay. Type of series: functional.
The next series concerns the target Histone deacetylase 2 (Homo sapiens, UniProt Q92769). Nature of the series: Inhibition of HDAC2 (unknown origin).
The next series has as its system NCI-H929. Nature of the series: Antiproliferative activity against human NCI-H929 cells assessed as inhibition of cell growth by MTT assay. Type of series: functional, cell-based. (In general: Tetrazolium assays rely on reduction of a dye to a coloured formazan, in cell work by metabolically active cells.)
The next series has as its system SH-SY5Y. Nature of the series: Antiproliferative activity against human SH-SY5Y cells assessed as inhibition of cell growth by MTT assay. Type of series: functional, cell-based.
The test system of the next series is MCF7. Put plainly: Antiproliferative activity against human MCF7 cells assessed as inhibition of cell growth by MTT assay. Type of series: functional, cell-based.
A further series deals with Histone deacetylase 1 (Homo sapiens, UniProt Q13547). Nature of the series: Inhibition of HDAC1 (unknown origin).
The target of another series is Histone deacetylase 3 (Homo sapiens, UniProt O15379). Nature of the series: Inhibition of HDAC3 (unknown origin).
A further series relates to HL-60. Put plainly: Antiproliferative activity against human HL-60 cells assessed as inhibition of cell growth by MTT assay. Type of series: functional, cell-based.
In another series the test system is U-266. Nature of the series: Antiproliferative activity against human U-266 cells assessed as inhibition of cell growth by MTT assay. Type of series: functional, cell-based.
The target in series [7] is T1, Protein deacetylase HDAC6 (Homo sapiens, UniProt Q9UBN7).
T1 sequence (Q9UBN7 whole entry): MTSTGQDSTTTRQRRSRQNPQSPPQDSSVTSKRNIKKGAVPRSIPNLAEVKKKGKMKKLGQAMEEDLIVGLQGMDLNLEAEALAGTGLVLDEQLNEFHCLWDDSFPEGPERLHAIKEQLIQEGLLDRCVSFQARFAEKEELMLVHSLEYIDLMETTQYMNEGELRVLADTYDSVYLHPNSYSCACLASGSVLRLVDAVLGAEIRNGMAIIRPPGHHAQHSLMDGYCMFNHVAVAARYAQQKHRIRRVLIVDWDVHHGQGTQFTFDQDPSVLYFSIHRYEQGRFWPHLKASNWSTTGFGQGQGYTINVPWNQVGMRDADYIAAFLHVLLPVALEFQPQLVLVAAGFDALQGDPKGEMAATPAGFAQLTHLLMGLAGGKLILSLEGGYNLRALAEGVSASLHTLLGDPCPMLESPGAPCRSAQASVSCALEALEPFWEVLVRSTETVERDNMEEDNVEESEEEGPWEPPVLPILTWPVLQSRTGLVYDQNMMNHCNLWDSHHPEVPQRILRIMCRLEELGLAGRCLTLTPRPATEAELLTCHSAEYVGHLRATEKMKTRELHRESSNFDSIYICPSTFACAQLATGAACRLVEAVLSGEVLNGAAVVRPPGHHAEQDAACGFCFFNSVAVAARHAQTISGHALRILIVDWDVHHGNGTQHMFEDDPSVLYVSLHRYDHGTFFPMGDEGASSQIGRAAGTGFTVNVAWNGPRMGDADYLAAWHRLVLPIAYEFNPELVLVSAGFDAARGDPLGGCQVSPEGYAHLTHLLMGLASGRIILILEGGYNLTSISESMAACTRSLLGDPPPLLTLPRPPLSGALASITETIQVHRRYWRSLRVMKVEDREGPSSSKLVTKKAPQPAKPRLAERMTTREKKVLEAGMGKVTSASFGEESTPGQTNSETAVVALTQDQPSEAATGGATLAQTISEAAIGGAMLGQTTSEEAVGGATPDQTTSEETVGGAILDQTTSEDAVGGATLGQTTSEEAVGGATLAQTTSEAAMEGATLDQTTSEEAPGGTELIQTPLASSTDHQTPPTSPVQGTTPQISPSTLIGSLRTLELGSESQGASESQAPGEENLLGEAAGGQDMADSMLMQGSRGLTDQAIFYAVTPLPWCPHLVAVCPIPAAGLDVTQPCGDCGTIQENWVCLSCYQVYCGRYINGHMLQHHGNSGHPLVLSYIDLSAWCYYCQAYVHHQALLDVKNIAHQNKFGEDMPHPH
Put plainly: Inhibition of HDAC6 (unknown origin).

A further series concerns the target Histone deacetylase 8 (Homo sapiens, UniProt Q9BY41). Nature of the series: Inhibition of HDAC8 (unknown origin).
In the next series the test system is U-937. Nature of the series: Antiproliferative activity against human U-937 cells assessed as inhibition of cell growth by MTT assay. Type of series: functional, cell-based.
The nature of series [8]: Cytotoxicity against African green monkey Vero cells assessed as inhibition of cell growth by MTT assay. Type of series: toxicity, cell-based, Chlorocebus sabaeus.
The test system of series [9] is A549. Nature of the series: Cytotoxicity against human A549 cells assessed as inhibition of cell growth by MTT assay. Type of series: functional, cell-based.
For a further series, the system named is HepG2. Put plainly: Cytotoxicity against human HepG2 cells assessed as inhibition of cell growth by MTT assay. Type of series: functional, cell-based.
Series [10] concerns PC-3. Nature of the series: Cytotoxicity against human PC-3 cells assessed as inhibition of cell growth by MTT assay. Type of series: functional, cell-based.
The test system of the next series is MDA-MB-231. Nature of the series: Cytotoxicity against human MDA-MB-231 cells assessed as inhibition of cell growth by MTT assay. Type of series: functional, cell-based.
A short description of series [11]: Cytotoxicity against human RWPE-1 cells assessed as inhibition of cell growth by MTT assay. Type of series: toxicity, cell-based.
Another series deals with Jurkat E6.1. Put plainly: Cytotoxicity against human Jurkat E6.1 cells assessed as inhibition of cell growth by MTT assay. Type of series: functional, cell-based.
Series [12] concerns the target Histone deacetylase 8 (Homo sapiens) (UniProt Q9BY41). Put plainly: Inhibition of HDAC8 (unknown origin) at 25 nM relative to control.
A further series has as its system HCT-116. Nature of the series: Cytotoxicity against human HCT-116 cells assessed as inhibition of cell growth by SRB assay. Type of series: functional, cell-based.
Series [13] relates to A549. Put plainly: Cytotoxicity against human A549 cells assessed as inhibition of cell growth by SRB assay. Type of series: functional.
The next series has as its system Hep 3B2. Nature of the series: Cytotoxicity against human Hep3B cells assessed as inhibition of cell growth by MTT assay. Type of series: functional.
Another series has as its target Histone deacetylase. Nature of the series: Inhibition of HDAC (unknown origin). Type of series: protein assay, Homo sapiens.
The target of series [14] is Histone deacetylase (Homo sapiens) (UniProt Q13547+O15379+Q9UBN7+Q92769+Q9UQL6+Q8WUI4+Q9BY41+Q96DB2+P56524+Q9UKV0+Q969S8). Nature of the series: Potency index, ratio of vorinostat IC50 to test compound IC50 for inhibition of HDAC (unknown origin). Type of series: protein assay.
Another series relates to SNU-398. Put plainly: Cytotoxicity against human SNU-398 cells assessed as inhibition of cell growth by SRB assay. Type of series: functional, cell-based.
The next series relates to SU-DHL-6. Put plainly: Cytotoxicity against human SU-DHL-6 cells assessed as inhibition of cell growth by SRB assay. Type of series: functional, cell-based.
The test system of another series is Ramos. Nature of the series: Cytotoxicity against human Ramos cells assessed as inhibition of cell growth by SRB assay. Type of series: functional, cell-based.
Series [15] is described as follows: Cytotoxicity against human HuT 102 cells assessed as inhibition of cell growth by MTT assay. Type of series: functional, cell-based.

The structures appear in SMILES notation. pIC50: −log10 of the molar value. Bounds are passed on as bounds.

Sequence of Histone deacetylase 2 (Q92769 whole entry): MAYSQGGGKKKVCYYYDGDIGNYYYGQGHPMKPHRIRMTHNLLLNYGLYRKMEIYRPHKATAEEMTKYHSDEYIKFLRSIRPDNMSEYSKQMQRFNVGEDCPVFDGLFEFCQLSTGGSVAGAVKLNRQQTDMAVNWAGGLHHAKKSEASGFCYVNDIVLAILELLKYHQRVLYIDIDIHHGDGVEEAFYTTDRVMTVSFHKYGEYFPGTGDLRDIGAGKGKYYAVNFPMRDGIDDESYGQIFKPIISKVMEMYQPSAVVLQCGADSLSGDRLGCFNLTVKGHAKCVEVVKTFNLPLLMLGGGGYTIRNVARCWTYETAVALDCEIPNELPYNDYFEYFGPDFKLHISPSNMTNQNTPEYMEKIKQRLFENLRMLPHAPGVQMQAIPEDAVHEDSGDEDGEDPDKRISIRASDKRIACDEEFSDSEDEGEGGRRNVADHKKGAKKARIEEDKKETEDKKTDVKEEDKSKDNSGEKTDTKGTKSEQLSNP
Sequence of Histone deacetylase 1 (Q13547 whole entry): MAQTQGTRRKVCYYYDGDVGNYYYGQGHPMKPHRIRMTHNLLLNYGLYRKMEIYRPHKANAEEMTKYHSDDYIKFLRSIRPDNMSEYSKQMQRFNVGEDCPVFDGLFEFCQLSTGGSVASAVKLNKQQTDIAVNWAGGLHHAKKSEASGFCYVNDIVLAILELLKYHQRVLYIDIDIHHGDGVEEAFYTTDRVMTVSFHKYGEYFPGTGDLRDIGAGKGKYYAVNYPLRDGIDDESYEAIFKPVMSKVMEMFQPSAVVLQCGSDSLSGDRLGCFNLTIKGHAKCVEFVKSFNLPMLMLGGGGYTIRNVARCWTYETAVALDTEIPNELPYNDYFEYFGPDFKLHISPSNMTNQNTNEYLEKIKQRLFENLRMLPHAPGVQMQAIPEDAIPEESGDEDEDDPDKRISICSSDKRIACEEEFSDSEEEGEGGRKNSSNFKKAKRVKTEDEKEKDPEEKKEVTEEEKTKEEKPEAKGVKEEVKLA
Sequence of Histone deacetylase 3 (O15379 whole entry): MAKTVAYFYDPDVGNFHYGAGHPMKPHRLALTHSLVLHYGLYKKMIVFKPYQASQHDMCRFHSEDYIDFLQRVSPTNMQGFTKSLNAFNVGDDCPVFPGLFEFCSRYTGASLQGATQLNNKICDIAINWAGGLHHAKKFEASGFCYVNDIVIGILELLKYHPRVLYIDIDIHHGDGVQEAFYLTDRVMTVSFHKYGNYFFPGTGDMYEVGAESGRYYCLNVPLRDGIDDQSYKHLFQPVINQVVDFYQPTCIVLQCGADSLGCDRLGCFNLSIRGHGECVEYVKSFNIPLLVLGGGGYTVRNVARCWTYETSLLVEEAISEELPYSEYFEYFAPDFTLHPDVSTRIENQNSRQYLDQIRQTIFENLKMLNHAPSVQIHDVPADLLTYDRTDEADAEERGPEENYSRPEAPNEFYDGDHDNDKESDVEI
Sequence of Histone deacetylase 8 (Homo sapiens) (Q9BY41 whole entry): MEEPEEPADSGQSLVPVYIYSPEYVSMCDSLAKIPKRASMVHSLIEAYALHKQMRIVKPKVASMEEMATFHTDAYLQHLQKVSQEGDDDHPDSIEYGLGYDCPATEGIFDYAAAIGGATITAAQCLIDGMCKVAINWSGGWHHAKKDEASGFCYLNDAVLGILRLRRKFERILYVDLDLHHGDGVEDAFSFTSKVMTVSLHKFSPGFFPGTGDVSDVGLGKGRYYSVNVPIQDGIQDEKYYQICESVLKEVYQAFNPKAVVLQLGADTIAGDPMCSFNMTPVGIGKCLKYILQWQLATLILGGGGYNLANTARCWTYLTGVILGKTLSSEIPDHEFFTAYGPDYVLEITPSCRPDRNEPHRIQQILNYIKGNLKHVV
Sequence of Histone deacetylase 8 (Q9BY41 whole entry): as above

Usually pIC50 stands for the IC50 on a negative log10 scale, so that one unit is a factor of ten. Take `CO/N=C1\CN(Cc2ccc(/C=C/C(=O)NO)cc2)c2ccc(F)cc21`: the pIC50 with ASPC1 [1] was 6.33; in the series on SW-620 [3] it was 6.33; in the series on PC-3 [5], 6.33; on Histone deacetylase 2, 6.57. The “Ratio IC50” value in the series with ASPC1 [2], in the series with SW-620 [4] and in the series with PC-3 [6] was 1.8 each time.

As for `O=C(NO)c1cn(C2CCN(C(=O)Cc3ccc4ccccc4c3)CC2)nn1`, the pIC50 in the series on NCI-H929 is 5.92; in the series on SH-SY5Y, 5.92; with MCF7 it was 5.92; on Histone deacetylase 1, 6.00; on Histone deacetylase 3, 6.00; in the series with HL-60, 5.92. Also, the pIC50 in the series on U-266 was 5.92; against Histone deacetylase 2, 6.00; in [7], 6.00; at Histone deacetylase 8, 6.00; with U-937 it was 5.92.

Consider `N#Cc1cccc(-c2cn(CCCCCCn3cccc(/C=C/C(=O)NO)c3=O)nn2)c1`, for which the pIC50 in series [8] is < 4.30; in the series with A549 [9], 6.22; with HepG2, 6.22; at Histone deacetylase 1, 7.46; in the series on PC-3 [10], 6.22; in the series on MDA-MB-231, 6.22. For the same molecule, the results for the pIC50 in [11] and in series [7] were < 4.30 and 7.31, respectively.

As a reminder, the inhibition is the share of the control response that was lost under treatment. Take `Nc1ccnc(NC(=O)[C@@H](N)CCCCC(=O)NO)n1`: the pIC50 in the series with Jurkat E6.1 was 4.70. The inhibition in series [12] worked out at 75%.

What is called GI50 is the concentration giving 50% growth inhibition. As a reminder, the IC50 is the concentration that gives 50% inhibition. On to `Cc1c(CCNS(=O)(=O)c2ccc(/C=C/C=C/C(=O)NO)cc2)c2ccccc2n1C`, for which the GI50 in the series with HCT-116, in the series with PC-3 [5], with A549 [13] and in the series on Hep 3B2 was 20 nM in each case. This molecule gave an IC50 against Histone deacetylase of 3.4 nM. In addition, the Ratio IC50 in [14] amounted to 35.

With `CNC(=O)c1cc(Oc2ccc(NC(=O)Nc3ccc(Cl)c(C(F)(F)F)c3)cc2)ccn1` [SORAFENIB], the pIC50 in the series on SNU-398, in the series on SU-DHL-6 and with Ramos was 9.00 each time.

As for `O=C(/C=C/c1ccc(S(=O)(=O)Nc2ccccc2C(F)(F)F)cc1)NO`, the pIC50 (in the series on HL-60; in series [15]) was 6.11 throughout.
